In PMC4818757, “Small molecule inhibitors of the Dishevelled‐CXXC5 interaction are new drug candidates for bone anabolic osteoporosis therapy” (EMBO Molecular Medicine, 2016):

Assays:
CYP1A2 = molecular target: T1, CYP1A2 (Homo sapiens, UniProt P05177); assay: in vitro; settings: probe fluorogenic P450 substrates
T1 sequence (P05177 1-516): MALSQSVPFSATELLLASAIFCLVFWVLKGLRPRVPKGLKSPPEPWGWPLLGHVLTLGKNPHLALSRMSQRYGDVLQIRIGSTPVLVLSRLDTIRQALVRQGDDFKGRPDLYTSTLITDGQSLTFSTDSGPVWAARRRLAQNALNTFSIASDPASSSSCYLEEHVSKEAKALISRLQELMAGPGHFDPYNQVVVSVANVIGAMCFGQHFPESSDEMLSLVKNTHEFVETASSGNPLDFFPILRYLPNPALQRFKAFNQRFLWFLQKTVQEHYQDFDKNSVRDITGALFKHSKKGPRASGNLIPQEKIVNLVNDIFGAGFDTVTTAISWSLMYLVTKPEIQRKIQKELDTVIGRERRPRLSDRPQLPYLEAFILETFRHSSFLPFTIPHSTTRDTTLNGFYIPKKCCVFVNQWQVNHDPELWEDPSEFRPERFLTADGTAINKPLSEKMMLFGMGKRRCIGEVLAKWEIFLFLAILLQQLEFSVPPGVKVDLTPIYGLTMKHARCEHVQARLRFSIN

[1] = molecular target: CYP C29 (so in the source); probably CYP2C9) (Homo sapiens, UniProt P11712); assay: Cytochrome P450 inhibition assay, C29; settings: probe fluorogenic P450 substrates
Sequence of CYP C29 (so in the source); probably CYP2C9) (P11712 whole entry): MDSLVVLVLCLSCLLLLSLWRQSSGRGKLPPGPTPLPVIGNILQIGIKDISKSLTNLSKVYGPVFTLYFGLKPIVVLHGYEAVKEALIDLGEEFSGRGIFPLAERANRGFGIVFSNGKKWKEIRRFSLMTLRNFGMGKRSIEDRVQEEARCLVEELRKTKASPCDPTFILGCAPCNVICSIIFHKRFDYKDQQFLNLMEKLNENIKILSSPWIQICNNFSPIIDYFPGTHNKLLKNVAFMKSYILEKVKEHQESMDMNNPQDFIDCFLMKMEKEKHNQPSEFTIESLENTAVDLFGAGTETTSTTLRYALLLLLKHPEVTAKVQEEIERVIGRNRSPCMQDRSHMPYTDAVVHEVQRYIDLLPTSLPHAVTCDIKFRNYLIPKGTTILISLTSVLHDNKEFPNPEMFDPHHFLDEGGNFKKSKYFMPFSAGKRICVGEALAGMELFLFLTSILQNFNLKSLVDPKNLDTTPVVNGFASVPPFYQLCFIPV
Description: Appendix Table S4. Cytochrome P450 (CYP) inhibition assay with 10 µ M KY-

[2] = molecular target: T2, Cytochrome P450 (CYP) 1A2 (Homo sapiens, UniProt P05177); assay: Cytochrome P450 inhibition assay, 1A2; settings: 10 μM; 1A2, C29 and 3A4 together
T2 sequence (P05177 1-516): T1 sequence (P05177 1-516)

hERG potassium channel = hERG potassium channel (Homo sapiens, UniProt Q12809); assay: hERG binding assay (fluorescence polarization); settings: human; 10 µM compound; fluorescence polarization
Sequence of hERG potassium channel (Q12809 whole entry): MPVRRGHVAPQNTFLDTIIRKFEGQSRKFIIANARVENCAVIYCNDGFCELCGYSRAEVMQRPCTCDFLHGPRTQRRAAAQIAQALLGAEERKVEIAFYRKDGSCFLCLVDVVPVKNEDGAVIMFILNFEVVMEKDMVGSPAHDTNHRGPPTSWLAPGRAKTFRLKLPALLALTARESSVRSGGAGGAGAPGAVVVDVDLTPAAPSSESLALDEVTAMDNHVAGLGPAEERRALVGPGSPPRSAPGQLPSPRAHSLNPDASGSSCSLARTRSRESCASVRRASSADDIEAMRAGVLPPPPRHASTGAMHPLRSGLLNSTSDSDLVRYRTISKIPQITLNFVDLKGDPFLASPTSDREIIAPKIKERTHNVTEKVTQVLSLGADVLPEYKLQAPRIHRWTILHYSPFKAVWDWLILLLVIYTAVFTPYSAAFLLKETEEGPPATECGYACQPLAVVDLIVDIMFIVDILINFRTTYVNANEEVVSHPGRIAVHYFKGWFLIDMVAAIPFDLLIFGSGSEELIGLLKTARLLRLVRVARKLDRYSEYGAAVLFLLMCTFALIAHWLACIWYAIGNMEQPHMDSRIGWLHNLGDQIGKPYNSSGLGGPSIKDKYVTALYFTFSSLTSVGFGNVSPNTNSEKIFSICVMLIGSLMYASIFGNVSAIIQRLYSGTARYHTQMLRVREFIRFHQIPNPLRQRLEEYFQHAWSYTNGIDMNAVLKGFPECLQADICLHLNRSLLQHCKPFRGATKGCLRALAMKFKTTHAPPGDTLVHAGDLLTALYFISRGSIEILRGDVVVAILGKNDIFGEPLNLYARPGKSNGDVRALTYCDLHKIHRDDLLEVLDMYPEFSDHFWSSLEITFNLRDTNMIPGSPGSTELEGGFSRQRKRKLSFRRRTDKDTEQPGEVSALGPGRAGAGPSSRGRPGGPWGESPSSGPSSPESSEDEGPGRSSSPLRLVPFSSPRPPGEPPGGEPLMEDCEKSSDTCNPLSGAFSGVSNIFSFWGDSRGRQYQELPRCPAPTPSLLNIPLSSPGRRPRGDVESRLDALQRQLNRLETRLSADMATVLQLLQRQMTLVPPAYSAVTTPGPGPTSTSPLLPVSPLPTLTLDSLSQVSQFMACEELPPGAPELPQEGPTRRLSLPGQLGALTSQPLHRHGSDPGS

MC3T3E1 cells [3] = assay: qRT-PCR of osteoblast differentiation markers in MC3T3E1 cells; type: cell-based, murine; settings: dose‐dependent
Description: Figure 5 Effects of KY‐02327 on Wnt/β‐catenin pathway and osteoblast differentiation in osteoblasts • A MC3T3E1 cells were transfected with pTOPFLASH together with pCMV‐β‐gal. After 24 h, the cells were treated with indicated dose of KY‐02327 for 2 days. The luciferase activities of whole‐cell lysates were measured and normalized with β‐galactosidase activities. (n = 3) • B, C MC3T3E1 cells were treated with indicated concentrations of KY‐02327 for 2 days. β‐Catenin and α‐tubulin were detected by immunoblot (B) or immunofluorescence (C) analyses. Nuclei were counterstained with DAPI (C, blue). Scale bars, 100 μm. • D MC3T3E1 cells were treated with indicated concentrations of KY‐02327 for 14 days. The mRNA level of collagen 1a (Col1a) was measured by quantitative real‐time PCR (qRT–PCR). […] The mRNA level of osteocalcin (OCN) was measured by qRT–PCR. […] (error bars), and significance was assessed using unpaired Student's t‐test.
MC3T3E1 cells and primary calvaria cells were maintained in supplemented α‐MEM. […] For quantitative real‐time PCR (qRT–PCR), total mRNAs were extracted using TRIzol (Invitrogen), complementary DNAs were prepared using Maxime PCR PreMix (iNtRON Biotechnology, Sungnam, Korea), and the qRT–PCRs were performed using SYBR Premix Ex Taq (TaKaRa, Shiga, Japan) in the StepOnePlus Real‐Time PCR machine (Thermo Fisher Scientific, Waltham, MA). […]

MC3T3E1 cells [4] = assay: β-catenin and Runx2 immunoblot/immunofluorescence in MC3T3E1 cells; type: cell-based, murine; settings: 2 days, dose‐dependent
Description: Figure 5 Effects of KY‐02327 on Wnt/β‐catenin pathway and osteoblast differentiation in osteoblasts • A MC3T3E1 cells were transfected with pTOPFLASH together with pCMV‐β‐gal. After 24 h, the cells were treated with indicated dose of KY‐02327 for 2 days. The luciferase activities of whole‐cell lysates were measured and normalized with β‐galactosidase activities. (n = 3) • B, C MC3T3E1 cells were treated with indicated concentrations of KY‐02327 for 2 days. β‐Catenin and α‐tubulin were detected by immunoblot (B) or immunofluorescence (C) analyses. Nuclei were counterstained with DAPI (C, blue). Scale bars, 100 μm. • D MC3T3E1 cells were treated with indicated concentrations of KY‐02327 for 14 days. The mRNA level of collagen 1a (Col1a) was measured by quantitative real‐time PCR (qRT–PCR). (n = 3) • E MC3T3E1 cells were treated with indicated concentrations of KY‐02327 for 21 days. The mRNA level of osteocalcin (OCN) was measured by qRT–PCR. (n = 3) Data Information: For A, D, and E, the data are the mean ± s.d. (error bars), and significance was assessed using unpaired Student's t‐test. […]

Dvl PDZ domain = molecular target: T3, Dvl PDZ domain (Homo sapiens, UniProt O14640); assay: Fluorescence quenching of Dvl PDZ domain; settings: read-out: binding affinity between Dvl PDZ domain and compound
T3 construct: plasmid DNA encoding Dvl-1247- 341 (the Dvl PDZ domain); His-tag (TEV-cleavable) (cleaved yes); made in house; host or cells: E. coli BL21 (DE3)
T3 sequence (O14640 247-341 limits assumed): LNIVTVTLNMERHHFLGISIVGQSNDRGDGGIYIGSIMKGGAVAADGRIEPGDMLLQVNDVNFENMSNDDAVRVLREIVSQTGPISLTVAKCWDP
Description: Figure 4 Binding of KY‐02327, a KY‐02061 analog, on Dvl PDZ domain • A The chemical structure of KY‐02327. • B A competition curve for the Dvl–CXXC5 interaction by KY‐02327. • C Fluorescence quenching plot of Dvl PDZ domain upon addition of different amounts of KY‐02327. From top to bottom, final molar ratio between Dvl PDZ and KY‐02327 was 1:0, 1:1, 1:2, 1:3, 1:4, 1:5, 1:6, 1:7, 1:8, 1:9, 1:10, 1:15, 1:20, and 1:25, respectively. • D–F ^1H‐^15N‐HSQC analyses were performed to analyze the interaction of ^15N‐labeled Dvl PDZ domain with KY‐02327. […] Plot of chemical shift changes (Δδ) as a function of residue number in molecular ratio 1:20 (E, a red‐colored line indicates the line for Δδ = 0.05). The residues with Δδ greater than 0.05 are visualized as a stick model on the ribbon representation of the Dvl PDZ domain structure (F). • G Molecular docking of KY‐02061 or KY‐02327 to Dvl PDZ domain was analyzed by in silico experiments. The superimposed structure of KY‐02061 (yellow) and KY‐02327 (cyan) on the surface of Dvl PDZ domain (gray) was visualized.

Structure (SMILES): CCOC(=O)c1cc2cc(O)ccc2n1CC(=O)NCCN1CCCCC1 [KY‐02327]
- inhibition at 10 µM (CYP1A2): 0%
- inhibition at 10 µM [1]: 0%
- inhibitory effect on the liver enzymes (cytochrome P450) [2]: no inhibitory effect
- inhibition at 10 µM (hERG potassium channel): 10.9 ± 2.07%
- mRNA level of collagen 1a (Col1a) (MC3T3E1 cells [3]; 14 days): increased
- mRNA level of osteocalcin (OCN) (MC3T3E1 cells [3]; 21 days): increased
- β‐catenin protein level together with Runx2, nuclear β‐catenin (MC3T3E1 cells [4]): increased
- Kd (Dvl PDZ domain): 8.31 ± 0.8 µM
